For series [1], the system named is PI3K isoforms. Nature of the series: HTRF biochemical assay, fold selectivity between PI3K isoforms. As to conditions: isoform selectivity. The source says: (§1) Fold form selectivity inhibition data against PI3K isoforms, as determined using a HTRF biochemical assay, is listed below.
On the technique in general: TR-FRET usually uses a lanthanide donor and a delayed reading to cut background.

The nature of series [2]: Rodent pharmacokinetics, male CD1 mouse, plasma PK. Type of series: in vivo. The conditions noted are these: for clearance / AUC / AUC(0-inf) / AUC(0-t) / Cmax / Vd / half-life: male, CD1, mouse. The procedure: Formulation: 10% DMSO, 90% Saline Dosing: 10 mg/kg P.O. and 5 mg/kg I.V. Plasma PK Summary:
Formulation: 10% DMSO, 90% Saline
Dosing: 10 mg/kg P.O. and 5 mg/kg I.V.

Series [3] in a line: Rodent pharmacokinetics, male Balb/c mouse, plasma PK. The conditions noted are these: for clearance: male, Balb/c, mouse, iv; for clearance / AUC(0-inf) / AUC(0-t) / Cmax / half-life / Vd / Tmax / bioavailability: plasma; for Vd: read-out: Vss. Type of series: in vivo. The procedure: Animals in Group 1 were administered intravenously with Example B solution formulation in 20% Propylene Glycol, 50% of PEG 400 and 30% of (20% HPβCD in water) via tail vein at a dose of 3 mg/kg.
Animals in Group 2 were administered with oral solution formulation of Example B in 20% Propylene Glycol, 50% of PEG 400 and 30% of (20% HPβCD in water) at a dose of 10 mg/kg;
Dosing: 10 mg/kg P.O. and 3 mg/kg I.V.
Animals in Group 1 were administered intravenously with Example G solution formulation in 5% NMP, 5% solutol HS-15 in 90% HPβCD solution (20% HPβCD in RO water) at 3 mg/kg dose.
Animals in Group 2 were administered orally with 10 mg/kg solution formulation of Example G in 5% NMP, 5% solutol HS-15 in 90% HPβCD solution (20% HPβCD in RO water)

For series [4], the target named is PI3K p110δ (Homo sapiens, UniProt O00329). The series is described as follows: HTRF biochemical assay, PI3K p110δ.
PI3K p110δ, sequence (O00329 whole entry): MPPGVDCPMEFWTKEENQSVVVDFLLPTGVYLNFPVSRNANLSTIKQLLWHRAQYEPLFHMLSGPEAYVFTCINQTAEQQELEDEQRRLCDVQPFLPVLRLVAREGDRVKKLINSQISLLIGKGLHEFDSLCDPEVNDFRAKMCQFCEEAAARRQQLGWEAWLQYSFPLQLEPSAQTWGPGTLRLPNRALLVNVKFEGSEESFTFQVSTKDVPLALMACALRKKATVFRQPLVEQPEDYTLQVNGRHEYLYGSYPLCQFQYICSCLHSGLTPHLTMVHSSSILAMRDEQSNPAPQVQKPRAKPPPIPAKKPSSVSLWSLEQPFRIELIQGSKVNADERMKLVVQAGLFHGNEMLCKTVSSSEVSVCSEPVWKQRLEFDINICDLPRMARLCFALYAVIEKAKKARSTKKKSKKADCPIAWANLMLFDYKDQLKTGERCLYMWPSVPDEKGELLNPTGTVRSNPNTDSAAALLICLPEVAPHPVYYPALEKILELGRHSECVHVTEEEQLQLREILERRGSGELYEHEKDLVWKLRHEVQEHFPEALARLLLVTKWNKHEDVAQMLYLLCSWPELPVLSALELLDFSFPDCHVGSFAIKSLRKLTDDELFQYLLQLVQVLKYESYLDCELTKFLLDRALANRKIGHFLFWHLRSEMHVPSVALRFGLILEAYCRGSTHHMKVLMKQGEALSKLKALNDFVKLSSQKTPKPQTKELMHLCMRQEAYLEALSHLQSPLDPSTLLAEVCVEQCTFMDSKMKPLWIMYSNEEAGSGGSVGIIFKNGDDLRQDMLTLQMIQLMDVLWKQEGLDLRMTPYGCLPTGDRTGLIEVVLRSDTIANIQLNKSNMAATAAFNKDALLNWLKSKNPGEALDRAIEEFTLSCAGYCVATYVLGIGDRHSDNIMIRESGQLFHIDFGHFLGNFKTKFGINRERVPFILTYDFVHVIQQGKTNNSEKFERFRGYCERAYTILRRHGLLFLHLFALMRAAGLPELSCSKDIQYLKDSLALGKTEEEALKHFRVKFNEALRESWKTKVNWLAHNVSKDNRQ
PI3K p110δ, sequence (P27986 whole entry partner): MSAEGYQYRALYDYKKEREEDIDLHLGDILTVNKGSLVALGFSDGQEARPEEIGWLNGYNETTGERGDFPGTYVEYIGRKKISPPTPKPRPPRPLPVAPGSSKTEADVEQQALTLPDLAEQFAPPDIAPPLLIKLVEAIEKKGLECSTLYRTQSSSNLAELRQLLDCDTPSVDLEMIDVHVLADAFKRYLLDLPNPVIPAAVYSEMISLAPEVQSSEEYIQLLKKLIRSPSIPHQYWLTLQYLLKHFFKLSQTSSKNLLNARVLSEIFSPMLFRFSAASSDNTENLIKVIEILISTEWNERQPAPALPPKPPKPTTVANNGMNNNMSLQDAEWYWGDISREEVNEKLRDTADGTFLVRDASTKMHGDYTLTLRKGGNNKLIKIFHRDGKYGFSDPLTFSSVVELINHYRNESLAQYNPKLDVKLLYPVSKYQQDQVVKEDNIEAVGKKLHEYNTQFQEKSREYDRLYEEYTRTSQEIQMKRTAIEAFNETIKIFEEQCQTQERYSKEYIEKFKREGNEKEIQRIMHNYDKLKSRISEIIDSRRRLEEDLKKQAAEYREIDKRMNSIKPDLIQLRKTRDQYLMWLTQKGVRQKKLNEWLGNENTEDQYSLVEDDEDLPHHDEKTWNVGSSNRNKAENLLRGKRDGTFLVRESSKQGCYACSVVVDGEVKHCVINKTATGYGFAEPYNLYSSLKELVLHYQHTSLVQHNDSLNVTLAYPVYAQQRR
Excerpt: as §1

Series [5] has as its target PI3K p110α (Homo sapiens, UniProt P42336). The series is described as follows: HTRF biochemical assay, PI3K p110α.
Excerpt: as §1

The target of series [6] is PI3K p110β (Homo sapiens, UniProt P42338). The series is described as follows: HTRF biochemical assay, PI3K p110β.
PI3K p110β, sequence (P42338 whole entry): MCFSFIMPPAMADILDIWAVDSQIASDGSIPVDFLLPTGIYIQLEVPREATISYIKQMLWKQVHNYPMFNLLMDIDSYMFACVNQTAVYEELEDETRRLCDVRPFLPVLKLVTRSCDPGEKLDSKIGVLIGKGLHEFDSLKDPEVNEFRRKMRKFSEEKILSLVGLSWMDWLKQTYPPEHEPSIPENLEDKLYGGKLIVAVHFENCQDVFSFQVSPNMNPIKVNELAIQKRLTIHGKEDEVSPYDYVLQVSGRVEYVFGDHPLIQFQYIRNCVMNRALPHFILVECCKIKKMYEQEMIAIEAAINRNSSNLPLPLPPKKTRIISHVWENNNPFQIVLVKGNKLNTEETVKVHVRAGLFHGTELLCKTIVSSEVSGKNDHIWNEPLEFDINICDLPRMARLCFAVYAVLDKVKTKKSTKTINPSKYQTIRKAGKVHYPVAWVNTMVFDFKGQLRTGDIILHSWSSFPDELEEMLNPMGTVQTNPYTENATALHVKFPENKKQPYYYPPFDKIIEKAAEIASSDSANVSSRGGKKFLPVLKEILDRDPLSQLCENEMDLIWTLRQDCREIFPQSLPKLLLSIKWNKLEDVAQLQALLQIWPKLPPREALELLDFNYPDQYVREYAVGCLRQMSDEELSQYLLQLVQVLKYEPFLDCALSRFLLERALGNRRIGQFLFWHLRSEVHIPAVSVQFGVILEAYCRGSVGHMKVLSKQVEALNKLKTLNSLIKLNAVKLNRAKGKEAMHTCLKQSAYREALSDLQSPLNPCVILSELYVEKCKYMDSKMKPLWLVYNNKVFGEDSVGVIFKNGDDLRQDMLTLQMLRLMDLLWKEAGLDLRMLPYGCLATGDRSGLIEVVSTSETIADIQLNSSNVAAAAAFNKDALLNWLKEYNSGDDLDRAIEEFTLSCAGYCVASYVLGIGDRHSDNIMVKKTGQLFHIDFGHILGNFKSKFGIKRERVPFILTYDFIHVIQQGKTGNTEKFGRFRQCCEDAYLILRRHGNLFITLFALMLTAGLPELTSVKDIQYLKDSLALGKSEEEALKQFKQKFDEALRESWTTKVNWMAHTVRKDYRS
PI3K p110β, sequence (P27986 whole entry partner): as the sequence (P27986 whole entry partner) above
Excerpt: as §1

Series [7] has as its target PI3K p110γ (Homo sapiens, UniProt P48736). Nature of the series: HTRF biochemical assay, PI3K p110γ.
Excerpt: as §1

Where [8] appears, read: plasma, iv, 5 mg/kg, 5 mg/kg I.V., summary.
Setting [9] is: plasma, iv, 5 mg/kg, Mesylate Salt.
Setting [10] is: plasma, po, 10 mg/kg, Mesylate Salt.
[11] abbreviates: plasma, IV, 5 mg/kg, Mesylate Salt, read-out: Tmax.
Setting [12] is: plasma, PO, 10 mg/kg, Mesylate Salt, read-out: Tmax.
Where [13] appears, read: plasma, oral, 10 mg/kg P.O. and 5 mg/kg I.V., rounded summary in text, read-out: Oral bioavailability (F).
The mark [14] stands for this setting: plasma, po, 10 mg/kg, summary table, unit inferred, read-out: Oral Bioavailability (F).
The mark [15] stands for this setting: oral, 10 mg/kg P.O. and 3 mg/kg I.V., read-out: Oral bioavailability (F).
Where [16] appears, read: po, 10 mg/kg, summary table, unit inferred, read-out: Oral Bioavailability (F).

PI3K p110γ, sequence (P48736 whole entry): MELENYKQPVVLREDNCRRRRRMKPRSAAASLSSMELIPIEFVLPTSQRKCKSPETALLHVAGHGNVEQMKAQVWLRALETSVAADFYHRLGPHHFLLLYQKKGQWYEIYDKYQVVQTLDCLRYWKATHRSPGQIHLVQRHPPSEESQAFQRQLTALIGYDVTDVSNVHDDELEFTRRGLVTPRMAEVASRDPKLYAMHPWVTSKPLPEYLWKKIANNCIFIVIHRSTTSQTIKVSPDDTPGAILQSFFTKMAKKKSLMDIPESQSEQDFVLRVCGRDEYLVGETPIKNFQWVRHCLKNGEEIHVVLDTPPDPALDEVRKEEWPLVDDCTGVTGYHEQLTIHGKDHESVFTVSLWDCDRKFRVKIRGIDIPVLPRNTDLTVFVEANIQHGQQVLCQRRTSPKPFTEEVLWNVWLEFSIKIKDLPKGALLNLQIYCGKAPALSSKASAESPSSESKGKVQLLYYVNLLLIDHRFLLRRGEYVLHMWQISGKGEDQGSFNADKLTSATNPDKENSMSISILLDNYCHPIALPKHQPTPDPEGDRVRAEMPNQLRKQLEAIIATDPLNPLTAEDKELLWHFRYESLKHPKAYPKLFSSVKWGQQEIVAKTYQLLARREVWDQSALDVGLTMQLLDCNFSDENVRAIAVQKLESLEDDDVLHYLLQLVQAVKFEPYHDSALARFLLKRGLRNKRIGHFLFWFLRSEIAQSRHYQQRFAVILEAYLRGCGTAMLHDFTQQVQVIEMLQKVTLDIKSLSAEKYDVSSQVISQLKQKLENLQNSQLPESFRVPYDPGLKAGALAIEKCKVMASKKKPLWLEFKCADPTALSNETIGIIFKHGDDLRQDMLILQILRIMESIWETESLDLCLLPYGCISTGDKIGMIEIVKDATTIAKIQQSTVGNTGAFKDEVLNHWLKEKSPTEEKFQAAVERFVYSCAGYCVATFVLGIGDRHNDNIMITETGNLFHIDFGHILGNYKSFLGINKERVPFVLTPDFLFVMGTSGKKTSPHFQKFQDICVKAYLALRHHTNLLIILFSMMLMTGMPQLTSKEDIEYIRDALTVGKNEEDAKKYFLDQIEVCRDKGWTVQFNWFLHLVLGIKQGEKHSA
PI3K p110α, sequence (P42336 whole entry): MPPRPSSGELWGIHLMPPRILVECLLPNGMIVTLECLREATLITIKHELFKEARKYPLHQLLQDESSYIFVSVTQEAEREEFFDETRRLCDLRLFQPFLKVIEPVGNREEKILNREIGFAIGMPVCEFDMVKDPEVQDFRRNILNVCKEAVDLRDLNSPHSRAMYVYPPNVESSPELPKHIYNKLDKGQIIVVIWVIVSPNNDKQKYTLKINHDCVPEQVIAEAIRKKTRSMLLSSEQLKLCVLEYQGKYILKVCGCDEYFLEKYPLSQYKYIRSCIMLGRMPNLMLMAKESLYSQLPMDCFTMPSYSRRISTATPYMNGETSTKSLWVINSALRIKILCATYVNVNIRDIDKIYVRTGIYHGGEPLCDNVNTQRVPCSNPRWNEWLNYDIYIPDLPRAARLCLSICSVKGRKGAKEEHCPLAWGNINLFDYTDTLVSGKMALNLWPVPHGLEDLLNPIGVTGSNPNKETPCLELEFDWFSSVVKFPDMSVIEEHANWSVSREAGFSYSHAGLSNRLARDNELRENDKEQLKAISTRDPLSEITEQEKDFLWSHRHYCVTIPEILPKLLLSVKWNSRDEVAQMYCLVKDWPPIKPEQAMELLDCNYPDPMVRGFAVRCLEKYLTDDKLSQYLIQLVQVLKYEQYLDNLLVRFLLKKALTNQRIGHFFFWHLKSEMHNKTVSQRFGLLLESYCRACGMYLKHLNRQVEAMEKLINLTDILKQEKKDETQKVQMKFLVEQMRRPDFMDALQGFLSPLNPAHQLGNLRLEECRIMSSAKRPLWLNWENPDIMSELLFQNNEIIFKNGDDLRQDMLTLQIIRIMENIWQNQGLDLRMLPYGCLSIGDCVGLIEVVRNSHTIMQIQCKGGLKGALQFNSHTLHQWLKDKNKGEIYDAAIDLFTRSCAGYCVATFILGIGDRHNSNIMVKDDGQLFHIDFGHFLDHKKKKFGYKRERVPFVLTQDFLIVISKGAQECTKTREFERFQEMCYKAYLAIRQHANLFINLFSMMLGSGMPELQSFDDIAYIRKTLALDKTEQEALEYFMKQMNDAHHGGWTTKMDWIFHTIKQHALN
PI3K p110α, sequence (P27986 whole entry partner): as the sequence (P27986 whole entry partner) above

For `CN1CCC2(CCN(Cc3cnc4oc5c(N6CCOCC6)nc(-c6cccc7[nH]ccc67)nc5c4c3)C2)C1` (centres unmarked) [Example E, 4-(1H-Indol-4-yl)-12-({7-methyl-2,7-diazaspiro[4.4]nonan-2-yl}methyl)-6-(morpholin-4-yl)-8-oxa-3,5,10-triazatricyclo[7.4.0.0^2,7]trideca-1(13),2(7),3,5,9,11-hexaene], in series [1], the “Fold IC50 p110β/p110α” value is “** (** = ≥50x)”, the “Fold IC50 p110β/p110γ” value is “** (** = ≥50x)”, the “Fold IC50 p110δ/p110α” value was “** (** = ≥50x)” and the “Fold IC50 p110δ/p110γ” value is on record as “** (** = ≥50x)”.
Regarding `CN1CCC2(CCN(Cc3cnc4oc5c(N6CCOCC6)nc(-c6cccc7[nH]ccc67)nc5c4c3)CC2)C1` [Example D, 4-(1H-Indol-4-yl)-12-({2-methyl-2,8-diazaspiro[4.5]decan-8-yl}methyl)-6-(morpholin-4-yl)-8-oxa-3,5,10-triazatricyclo[7.4.0.0^2,7]trideca-1(13),2(7),3,5,9,11-hexaene], in series [1], the “Fold IC50 p110β/p110α” value is on record as “** (** = ≥50x)”, the “Fold IC50 p110β/p110γ” value is reported as “** (** = ≥50x)”, the “Fold IC50 p110δ/p110α” value is given as “** (** = ≥50x)” and the “Fold IC50 p110δ/p110γ” value is “** (** = ≥50x)”.
For `c1cc(-c2nc(N3CCOCC3)c3oc4ncc(CN5CCCCC5)cc4c3n2)c2cc[nH]c2c1` [Example I in WO2011/021038], the Tmax was 0.08 h in series [2] (IV, 5 mg/kg, HCl Salt); 1.0 h in series [2] (PO, 10 mg/kg, HCl Salt); 0.08 h in series [2] (setting [11]); 1 h in series [2] (setting [12]). Moreover, the F is given as 29.6% in series [2] (PO, 10 mg/kg, HCl Salt) and 27.8% in series [2] (PO, 10 mg/kg, Mesylate Salt). Besides, the clearance in series [2] (setting [8]) is 66 mL/min/kg; in series [2] (plasma, iv, 5 mg/kg, HCl Salt) it was 55 mL/min/kg; in series [2] (setting [9]) it was 66.1 mL/min/kg. The exposure (AUC) turned out to be 1480 ng·h/mL in series [2] (plasma, iv, 5 mg/kg, HCl Salt); 1240 ng·h/mL in series [2] (setting [9]); 849 ng·h/mL in series [2] (plasma, po, 10 mg/kg, HCl Salt); 657 ng·h/mL in series [2] (setting [10]). Further, the area under the curve AUC(0-inf) in series [2] (plasma, iv, 5 mg/kg, HCl Salt) worked out at 1520 ng·h/mL; in series [2] (setting [9]), 1260 ng·h/mL; in series [2] (plasma, po, 10 mg/kg, HCl Salt), 896 ng·h/mL; in series [2] (setting [10]), 700 ng·h/mL. For the same compound, the AUC(0-t) was found to be 1480 ng·h/mL in series [2] (plasma, iv, 5 mg/kg, HCl Salt); 1240 ng·h/mL in series [2] (setting [9]); 849 ng·h/mL in series [2] (plasma, po, 10 mg/kg, HCl Salt); 657 ng·h/mL in series [2] (setting [10]). Moreover, the peak concentration (Cmax) was found to be 1710 ng/mL in series [2] (plasma, iv, 5 mg/kg, HCl Salt); 1620 ng/mL in series [2] (setting [9]); 322 ng/mL in series [2] (plasma, po, 10 mg/kg, HCl Salt); 212 ng/mL in series [2] (setting [10]). For the same compound, the Vd in series [2] (plasma, iv, 5 mg/kg, HCl Salt) is 10.1 L/kg; in series [2] (setting [9]), 4.6 L/kg. For the same compound, the half-life in series [2] (plasma, iv, 5 mg/kg, HCl Salt) is 7.6 h; in series [2] (setting [9]), 1.6 h; in series [2] (plasma, po, 10 mg/kg, HCl Salt), 1.8 h; in series [2] (setting [10]), 1.9 h. For the same compound, the bioavailability in series [2] (setting [13]) and in series [2] (setting [14]) was 28% in each case.
On to `c1cc(-c2nc(N3CCOCC3)c3oc4ncc(CN5CCC6(CC5)COC6)cc4c3n2)c2cc[nH]c2c1` [Example B, 4-(1H-Indol-4-yl)-6-(morpholin-4-yl)-12-{2-oxa-7-azaspiro[3.5]nonan-7-ylmethyl}-8-oxa-3,5,10-triazatricyclo[7.4.0.027]trideca-1(13),2(7),3,5,9,11-hexaene], for which, in series [1], the “Fold IC50 p110β/p110α” value is “** (** = ≥50x)”, the “Fold IC50 p110β/p110γ” value is “** (** = ≥50x)”, the “Fold IC50 p110δ/p110α” value was “** (** = ≥50x)” and the “Fold IC50 p110δ/p110γ” value is “** (** = ≥50x)”. Moreover, in series [3] (PO, 10 mg/kg, Mesylate Salt), the F is reported as 74%, the AUC(0-inf) was 4100 ng·h/mL, the area under the curve AUC(0-t) was 3730 ng·h/mL and the Cmax was 780 ng/mL. Further, the time to peak (Tmax) in series [3] (PO, 10 mg/kg, Mesylate Salt) was 1 h. In series [3] (3 mg/kg, 3 mg/kg I.V., summary), the clearance worked out at 33 mL/min/kg. Besides, the clearance in series [3] (3 mg/kg, Mesylate Salt) was 33.1 mL/min/kg. In series [3] (IV, 3 mg/kg, Mesylate Salt), the AUC(0-inf) amounted to 1510 ng·h/mL, the AUC(0-t) stood at 1510 ng·h/mL, the Cmax was 621 ng/mL and the half-life was 1.23 h. The Vd in series [3] (IV, 3 mg/kg, Mesylate Salt) worked out at 5.51 L/kg. In addition, in series [3] (setting [15]), the bioavailability worked out at 74%. The bioavailability in series [3] (setting [16]) came to 74%.
As for `c1cc(-c2nc(N3CCOCC3)c3oc4ncc(CN5CCC56COC6)cc4c3n2)c2cc[nH]c2c1` [Example G, 4-(1H-indol-4-yl)-6-(morpholin-4-yl)-12-{6-oxa-1-azaspiro[3.3]heptan-1-ylmethyl}-8-oxa-3,5,10-triazatricyclo[7.4.0.0^2,7]trideca-1(13),2(7),3,5,9,11-hexaene], the IC50 in series [4] was ≤ 500 nM; in series [5], ≤ 500 nM; in series [6], ≤ 500 nM; in series [7], 500 to 1000 nM. Further, the F in series [3] (PO, 10 mg/kg, Mesylate Salt) came to 30%. For the same compound, the clearance in series [3] (3 mg/kg, 3 mg/kg I.V., summary) was 26 mL/min/kg; in series [3] (3 mg/kg, Mesylate Salt), 25.8 mL/min/kg. Besides, the total exposure AUC(0-inf) stood at 1940 ng·h/mL in series [3] (IV, 3 mg/kg, Mesylate Salt) and 2140 ng·h/mL in series [3] (PO, 10 mg/kg, Mesylate Salt). For the same compound, the AUC(0-t) came out at 1920 ng·h/mL in series [3] (IV, 3 mg/kg, Mesylate Salt) and 1890 ng·h/mL in series [3] (PO, 10 mg/kg, Mesylate Salt). In addition, the peak concentration (Cmax) in series [3] (IV, 3 mg/kg, Mesylate Salt) worked out at 2210 ng/mL; in series [3] (PO, 10 mg/kg, Mesylate Salt) it was 833 ng/mL. Besides, in series [3] (IV, 3 mg/kg, Mesylate Salt), the half-life was 0.59 h. Moreover, in series [3] (IV, 3 mg/kg, Mesylate Salt), the Vd turned out to be 1.25 L/kg. Further, the time of peak concentration (Tmax) in series [3] (PO, 10 mg/kg, Mesylate Salt) turned out to be 0.25 h. Also, the bioavailability in series [3] (setting [15]) and in series [3] (setting [16]) was 30% throughout.
`c1cc(-c2nc(N3CCOCC3)c3oc4ncc(CN5C[C@@H]6C[C@H]5CO6)cc4c3n2)c2cc[nH]c2c1` [Example A, 4-(1H-Indol-4-yl)-6-(morpholin-4-yl)-12-[(1S,4S)-2-oxa-5-azabicyclo[2.2.1]heptan-5-ylmethyl]-8-oxa-3,5,10-triazatricyclo[7.4.0.0^2,7]trideca-1(13),2(7),3,5,9,11-hexaene]: the F in series [2] (PO, 10 mg/kg, Mesylate Salt) is reported as 73.77%. In addition, the clearance in series [2] (setting [8]) is 21 mL/min/kg. In addition, in series [2] (setting [9]), the exposure (AUC) stood at 3900 ng·h/mL, the AUC(0-inf) came out at 3950 ng·h/mL, the AUC(0-t) worked out at 3900 ng·h/mL and the Cmax stood at 2640 ng/mL. For the same compound, in series [2] (setting [9]), the Vd was 2.44 L/kg, the clearance is 21.1 mL/min/kg and the half-life was 1.3 h. In series [2] (setting [10]), the exposure (AUC) stood at 5620 ng·h/mL, the AUC(0-inf) was determined as 5820 ng·h/mL, the AUC(0-t) is 5620 ng·h/mL and the peak concentration (Cmax) came out at 1970 ng/mL. Besides, the half-life in series [2] (setting [10]) is 1.3 h. The time of peak concentration (Tmax) in series [2] (setting [11]) is 0.08 h. For the same compound, the time of peak concentration (Tmax) in series [2] (setting [12]) worked out at 1 h. For the same compound, the bioavailability in series [2] (setting [13]) stood at 74%. Also, the bioavailability in series [2] (setting [14]) is 74%.

Broadly, the Tmax is the time at which the peak concentration occurs. For orientation: clearance means the volume of plasma or blood freed of the substance per unit of time. What is called AUC is the area under the concentration-time curve, a measure of exposure. One may read the AUC(0-inf) as total exposure, with the tail of the curve extrapolated. In general, AUC(0-t) refers to the area under the concentration-time curve up to a stated or last time point. As usually defined, the Cmax is the peak of the concentration-time curve. As usually defined, the half-life is the time needed for the level to fall by half in the phase considered. In general, bioavailability refers to the share of a dose that reaches the circulation, judged against a reference dose that is usually intravenous. By IC50 is commonly meant the concentration that gives 50% inhibition. Higher therefore signals lower potency.

The values are drawn from US9981987B2, “Tricyclic heterocyclic compounds as phosphoinositide 3-kinase inhibitors” (Karus Therapeutics Limited, priority 2014, dated 2018).
